Experimental data from patent US11498923B2 (Merck Sharp & Dohme Corp., priority 2017, dated 2022).

Target: T1, human A2a receptor (Homo sapiens, UniProt P29274)
T1 construct: purchased Perkin-Elmer RBHA2AM400UA; host or cells: HEK293 cells, used as a membrane preparation
Test: A2a receptor competition binding assay (Scintillation Proximity)
Conditions: membranes from HEK293 cells expressing human A2a receptor; 0.5 nM tritiated ligand; Cheng-Prusoff; read-out: A2a Ki
Procedure, shortened: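 Ki values were obtained with the Cheng-Prusoff equation from competition curves against 0.5 nM tritiated antagonist, scintillation proximity counting after 1 h room-temperature incubation. Receptor came from HEK293 membranes pretreated with adenosine deaminase; compound final range 3000–0.15 nM, buffer Ca/Mg-free PBS with 10 mM MgCl2.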

T1 sequence (P29274 whole entry): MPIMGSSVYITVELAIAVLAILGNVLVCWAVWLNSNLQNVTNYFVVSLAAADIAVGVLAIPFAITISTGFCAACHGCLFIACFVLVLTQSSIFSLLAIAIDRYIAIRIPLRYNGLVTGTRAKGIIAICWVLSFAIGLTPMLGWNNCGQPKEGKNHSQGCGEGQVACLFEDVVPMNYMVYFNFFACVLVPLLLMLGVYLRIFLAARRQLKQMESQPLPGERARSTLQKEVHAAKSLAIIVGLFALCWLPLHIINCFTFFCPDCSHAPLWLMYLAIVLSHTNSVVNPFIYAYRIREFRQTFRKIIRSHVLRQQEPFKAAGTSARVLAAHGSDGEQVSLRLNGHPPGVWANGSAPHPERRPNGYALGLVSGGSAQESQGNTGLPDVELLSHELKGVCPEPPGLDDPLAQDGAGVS

SMILES	Ki
COc1cccc2c1nc(N)n1cc(C(=O)N3C[C@@H]4[C@@H]5CC[C@@H](C5)[C@@H]4C3)nc21 [Ex-236, (5-amino-7-methoxyimidazo[1,2-c]quinazolin-2-yl)((3aR,4R,7S,7aS)-octahydro-2H-4,7-methanoisoindol-2-yl)methanone]	0.0064 µM
COc1cccc2c1nc(N)n1cc(C(=O)N3CC4CC3CS(=O)(=O)C4)nc21 (stereo not drawn) [Ex-237, (5-amino-7-methoxyimidazo[1,2-c]quinazolin-2-yl)(3,3-dioxido-3-thia-6-azabicyclo[3.2.1]octan-6-yl)methanone]	0.037 µM
COc1cccc2c1nc(N)n1cc(C(=O)N3CCC(=O)C3)nc21 [Ex-238, 1-(5-amino-7-methoxyimidazo[1,2-c]quinazoline-2-carbonyl)pyrrolidin-3-one]	0.17 µM
COc1cccc2c1nc(N)n1cc(C(=O)N3C[C@@H](C)O[C@H](C)C3)nc21 [Ex-239, (5-amino-7-methoxyimidazo[1,2-c]quinazolin-2-yl)((2R,6R)-2,6-dimethylmorpholino) methanone]	0.13 µM
COc1cccc2c1nc(N)n1cc(C(=O)N3CCCC(OC)C3)nc21 (stereo not drawn) [Ex-240, (5-amino-7-methoxyimidazo[1,2-c]quinazolin-2-yl)(3-methoxypiperidin-1-yl)methanone]	0.0306 µM
COc1cccc2c1nc(N)n1cc(C(=O)N3CCCC(F)(F)C3)nc21 [Ex-241, (5-amino-7-methoxyimidazo[1,2-c]quinazolin-2-yl)(3,3-difluoropiperidin-1-yl)methanone]	0.013 µM
COc1cccc2c1nc(N)n1cc(C(=O)N3CCCC4(CC4)C3)nc21 [Ex-242, (5-amino-7-methoxyimidazo[1,2-c]quinazolin-2-yl)(5-azaspiro[2.5]octan-5-yl)methanone]	0.0043 µM
CC(=O)Nc1ccc2c(c1)CN(C(=O)c1cn3c(N)nc4c(F)cccc4c3n1)CC2 [Ex-244, N-(2-(5-amino-7-fluoroimidazo[1,2-c]quinazoline-2-carbonyl)-1,2,3,4-tetrahydroisoquinolin-7-yl)acetamide]	0.0496 µM
COc1cccc2c1nc(N)n1cc(C(=O)N3CCN4CCCC[C@@H]4C3)nc21 [Ex-245, (R)-(5-amino-7-methoxyimidazo[1,2-c]quinazolin-2-yl)(octahydro-2H-pyrido[1,2-a]pyrazin-2-yl)methanone]	0.152 µM
Nc1nc2c(F)cccc2c2nc(C(=O)NCc3ccccc3CN3CCN(c4ccccn4)CC3)cn12 [Ex-246, 5-amino-7-fluoro-N-(2-((4-(pyridin-2-yl)piperazin-1-yl)methyl)benzyl)imidazo[1,2-c]quinazoline-2-carboxamide]	0.021 µM
Nc1nc2c(F)cccc2c2nc(C(=O)N3CCc4cccc(CN5CCN(c6ccc(F)cc6F)CC5)c4C3)cn12 [Ex-247]	0.12 µM
Nc1nc2c(F)cccc2c2nc(C(=O)NC3CCNc4ccccc43)cn12 (stereo not drawn) [Ex-248, 5-amino-7-fluoro-N-(1,2,3,4-tetrahydroquinolin-4-yl)imidazo[1,2-c]quinazoline-2-carboxamide]	0.009 µM
Nc1nc2c(F)cccc2c2nc(C(=O)NCc3ccccc3CN3CCN(c4ccc(F)cc4F)CC3)cn12 [Ex-249, 5-amino-N-(2-((4-(2,4-difluorophenyl)piperazin-1-yl)methyl)benzyl)-7-fluoroimidazo[1,2-c]quinazoline-2-carboxamide]	0.018 µM
Nc1nc2c(F)cccc2c2nc(C(=O)NCc3ccccc3N3CCOCC3)cn12 [Ex-250, 5-amino-7-fluoro-N-(2-morpholinobenzyl)imidazo [1,2-c]quinazoline-2-carboxamide]	0.002 µM
Nc1nc2c(F)cccc2c2nc(C(=O)N3CCc4cccc(CN5CCN(c6ccccn6)CC5)c4C3)cn12 [Ex-251, (5-amino-7-fluoroimidazo[1,2-c]quinazolin-2-yl)(8-((4-(pyridin-2-yl)piperazin-1-yl)methyl)-3,4-dihydroisoquinolin-2(1H)-yl)methanone]	0.091 µM
Nc1nc2c(F)cccc2c2nc(C(=O)NCc3cccc(N4CCN(c5ccc(F)cc5F)CC4)c3)cn12 [Ex-252, 5-amino-N-(3-(4-(2,4-difluorophenyl)piperazin-1-yl)benzyl)-7-fluoroimidazo[1,2-c]quinazoline-2-carboxamide]	0.0072 µM
COCCOc1ccc(N2CCN(c3ccccc3CNC(=O)c3cn4c(N)nc5c(F)cccc5c4n3)CC2)cc1 [Ex-253, 5-amino-7-fluoro-N-(2-(4-(4-(2-methoxyethoxy)phenyl)piperazin-1-yl)benzyl)imidazo[1,2-c]quinazoline-2-carboxamide]	0.0037 µM
COCCOc1ccc(N2CCN(c3cccc(CNC(=O)c4cn5c(N)nc6c(F)cccc6c5n4)c3)CC2)cc1 [Ex-254, 5-amino-7-fluoro-N-(3-(4-(4-(2-methoxyethoxy)phenyl)piperazin-1-yl)benzyl)imidazo[1,2-c]quinazoline-2-carboxamide]	0.0051 µM
Nc1nc2c(F)cccc2c2nc(C(=O)NCc3ccccc3CN3CCOCC3)cn12 [Ex-255, 5-amino-7-fluoro-N-(2-(morpholinomethyl)benzyl) imidazo[1,2-c]quinazoline-2-carboxamide]	0.0061 µM
CC(C)(C)OC(=O)N1CCN(c2ccccc2CNC(=O)c2cn3c(N)nc4c(F)cccc4c3n2)CC1 [Ex-256, tert-butyl 4-(2-((5-amino-7-fluoroimidazo[1,2-c]quinazoline-2-carboxamido)methyl)phenyl) piperazine-1-carboxylate]	0.0045 µM
Nc1nc2c(F)cccc2c2nc(C(=O)NCc3cccc(N4CCOCC4)c3)cn12 [Ex-257, 5-amino-7-fluoro-N-(3-morpholino-benzyl)imidazo-[1,2-c]-quinazoline-2-carboxamide]	0.0036 µM
Nc1nc2c(F)cccc2c2nc(C(=O)NCc3cccc(CN4CCOCC4)c3)cn12 [Ex-258, 5-amino-7-fluoro-N-(3-(morpholinomethyl)benzyl) imidazo[1,2-c]quinazoline-2-carboxamide]	0.0023 µM
CC(C)(C)OC(=O)N1CCC2(CCN(C(=O)c3cn4c(N)nc5c(F)cccc5c4n3)C2)C1 (stereo not drawn) [Ex-259, tert-butyl 7-(5-amino-7-fluoroimidazo[1,2-c]quinazoline-2-carbonyl)-2,7-diazaspiro[4.4]nonane-2-carboxylate]	0.029 µM
CC(C)(C)OC(=O)N1CCC2(CCCN(C(=O)c3cn4c(N)nc5c(F)cccc5c4n3)C2)C1 (stereo not drawn) [Ex-260, tert-butyl 7-(5-amino-7-fluoroimidazo[1,2-c]quinazoline-2-carbonyl)-2,7-diazaspiro[4.5]decane-2-carboxylate]	0.015 µM
Nc1nc2c(F)cccc2c2nc(C(=O)NCc3ccccc3N3CCNCC3)cn12 [Ex-261, 5-amino-7-fluoro-N-(2-(piperazin-1-yl)benzyl)imidazo[1,2-c]quinazoline-2-carboxamide]	0.0054 µM
CC(C)(C)OC(=O)N1CCC2(CCN(C(=O)c3cn4c(N)nc5c(F)cccc5c4n3)CC2)C1 [Ex-262, tert-butyl 8-(5-amino-7-fluoroimidazo[1,2-c]quinazoline-2-carbonyl)-2,8-diazaspiro[4.5]decane-2-carboxylate]	0.053 µM
Nc1nc2c(F)cccc2c2nc(C(=O)NCc3ccccc3OC3CCN(c4ccccn4)CC3)cn12 [Ex-263, 5-amino-7-fluoro-N-(2-((1 (pyridin-2-yl)piperidin-4-yl)oxy)benzyl)imidazo[1,2-c]quinazoline-2-carboxamide]	0.0029 µM
